Laboratory results published in the supplement of paper PMC8960247.
Where a name gives a salt, the structure may show the parent alone. ± gives the standard error.

Legend:
621-103 (TSC2-rescued) = test: relative viability vs DMSO; higher = less cytotoxic; conditions: serum: 10% FBS, 72 h
621-102 (TSC2-deficient) [1] = test: as above; conditions: serum: 10% FBS, 72 h
UMB1949 (TSC2-deficient) = test: relative viability vs DMSO (fraction); higher = less cytotoxic; conditions: serum: 0.1% FBS, 72 h;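 note: renal angiomyolipoma cell lines screened in 384-well plates, viability normalized per plate to DMSO-treated cells, each plate carrying 50 nM rapamycin and 1 µM staurosporine controls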
621-102 (TSC2-deficient) [2] = test: as above; conditions: serum: 0.1% FBS, 72 h

| Compound | relative viability (621-103 (TSC2-rescued); 0.0001 µM) | relative viability (621-103 (TSC2-rescued); 0.001 µM) | relative viability (621-103 (TSC2-rescued); 0.01 µM) | relative viability (621-103 (TSC2-rescued); 0.1 µM) | relative viability (621-103 (TSC2-rescued); 1 µM) | relative viability (621-103 (TSC2-rescued); 10 µM) | relative viability (621-102 (TSC2-deficient) [1]; 0.0001 µM) | relative viability (621-102 (TSC2-deficient) [1]; 0.001 µM) | relative viability (621-102 (TSC2-deficient) [1]; 0.01 µM) | relative viability (621-102 (TSC2-deficient) [1]; 0.1 µM) | relative viability (621-102 (TSC2-deficient) [1]; 1 µM) | relative viability (621-102 (TSC2-deficient) [1]; 10 µM) | relative viability (UMB1949 (TSC2-deficient); 0.0128 nM) | relative viability (UMB1949 (TSC2-deficient); 0.064 nM) | relative viability (UMB1949 (TSC2-deficient); 0.32 nM) | relative viability (UMB1949 (TSC2-deficient); 1.6 nM) | relative viability (UMB1949 (TSC2-deficient); 8 nM) | relative viability (UMB1949 (TSC2-deficient); 40 nM) | relative viability (UMB1949 (TSC2-deficient); 200 nM) | relative viability (UMB1949 (TSC2-deficient); 1000 nM) | relative viability (UMB1949 (TSC2-deficient); 5000 nM) | relative viability (621-102 (TSC2-deficient) [2]; 0.0128 nM) | relative viability (621-102 (TSC2-deficient) [2]; 0.064 nM) | relative viability (621-102 (TSC2-deficient) [2]; 0.32 nM) | relative viability (621-102 (TSC2-deficient) [2]; 1.6 nM) | relative viability (621-102 (TSC2-deficient) [2]; 8 nM) | relative viability (621-102 (TSC2-deficient) [2]; 40 nM) | relative viability (621-102 (TSC2-deficient) [2]; 200 nM) | relative viability (621-102 (TSC2-deficient) [2]; 1000 nM) | relative viability (621-102 (TSC2-deficient) [2]; 5000 nM) |
| --- | --- | --- | --- | --- | --- | --- | --- | --- | --- | --- | --- | --- | --- | --- | --- | --- | --- | --- | --- | --- | --- | --- | --- | --- | --- | --- | --- | --- | --- | --- |
| CCC[C@H](Nc1nc(-c2ccc(NC(=O)NCC)c(OC)c2)ncc1C)c1cccnc1 [CYT997] | 82.2 ± 1.5% | 78.28 ± 0.4% | 40.2 ± 0.82% | 26.3 ± 2.2% | 24.3 ± 0.3% | 25.4 ± 2% | 87.8 ± 1.3% | 95.67 ± 0.75% | 48.6 ± 1.6% | 39.1 ± 0.56% | 36.2 ± 0.95% | 41 ± 1.1% | 0.622 | 0.0694 | 0.00719 | 0.0079 | 0.00595 | 0.00742 | 0.00575 | 0.00558 | 0.00511 | – | – | – | – | – | – | – | – | – |
| CO[C@H]1C[C@@H]2CC[C@@H](C)[C@@](O)(O2)C(=O)C(=O)N2CCCC[C@H]2C(=O)O[C@H]([C@H](C)C[C@@H]2CC[C@@H](OCCO)[C@H](OC)C2)CC(=O)[C@H](C)/C=C(\C)[C@@H](O)[C@@H](OC)C(=O)[C@H](C)C[C@H](C)/C=C/C=C/C=C/1C [Everolimus(RAD001)] | – | – | – | – | – | – | – | – | – | – | – | – | 1 | 0.899 | 0.985 | 0.9 | 0.936 | 0.847 | 0.781 | 0.401 | 0.461 | 0.753 | 0.734 | 0.706 | 0.696 | 0.681 | 0.543 | 0.391 | 0.325 | 0.276 |
| CN1CC[C@H](c2c(O)cc(O)c3c(=O)cc(-c4ccccc4Cl)oc23)[C@H](O)C1 [Flavopiridol hydrochloride] | – | – | – | – | – | – | – | – | – | – | – | – | 0.977 | 1 | 0.989 | 1.04 | 1.15 | 0.855 | 0.00837 | 0.00534 | 0.00482 | 0.701 | 0.787 | 0.805 | 0.875 | 0.747 | 0.227 | 0.009 | 0.0076 | 0.0171 |
| CC(C)c1cc(C(C)C)c(CC(=O)NS(=O)(=O)Oc2c(C(C)C)cccc2C(C)C)c(C(C)C)c1 [Avasimibe] | – | – | – | – | – | – | – | – | – | – | – | – | 1.13 | 1.12 | 1.19 | 1.06 | 1.08 | 1.1 | 1.02 | 0.00835 | 0.00834 | 1.07 | 0.675 | 1.2 | 1.1 | 1.08 | 1.53 | 1.4 | 0.32 | 0.0125 |
| Nc1ccccc1NC(=O)c1ccc(CNc2nccc(-c3cccnc3)n2)cc1 [Mocetinostat] | – | – | – | – | – | – | – | – | – | – | – | – | 1.24 | 1.09 | 1.05 | 1.02 | 0.951 | 0.578 | 0.0241 | 0.00165 | 0.00203 | 0.964 | 0.98 | 0.857 | 0.954 | 0.735 | 0.401 | 0.174 | 0.084 | 0.00442 |
| CC[C@@]1(O)C(=O)OCc2c1cc1n(c2=O)Cc2cc3ccccc3nc2-1 [Camptothecin] | – | – | – | – | – | – | – | – | – | – | – | – | 0.995 | 0.913 | 0.83 | 0.129 | 0.0117 | 0.00478 | 0.00188 | 0.00182 | 0.00462 | 0.843 | 0.818 | 0.747 | 0.485 | 0.166 | 0.178 | 0.00844 | 0.00416 | 0.00456 |
| CC(C)[C@H](C(=O)Nc1ccc(C(=O)NO)cc1)c1ccccc1 [AR-42] | – | – | – | – | – | – | – | – | – | – | – | – | 1.03 | 1.11 | 1.12 | 1.07 | 0.89 | 0.548 | 0.0124 | 0.00772 | 0.00643 | 0.993 | 1.12 | 1.01 | 1.02 | 0.76 | 0.563 | 0.416 | 0.389 | 0.0646 |
| Cc1ccc(NC(=O)c2ccc(CN3CCN(C)CC3)cc2)cc1Nc1nc(-c2cccnc2)cs1 [Masitinib(AB1010)] | – | – | – | – | – | – | – | – | – | – | – | – | 1.09 | 1.21 | 1.16 | 1.18 | 1.09 | 1.19 | 0.96 | 0.156 | 0.0043 | 0.869 | 0.9 | 0.886 | 0.951 | 0.909 | 0.82 | 0.683 | 0.277 | 0.0135 |
| C#Cc1cccc(Nc2ncnc3cc(OC)c(OCCCCCCC(=O)NO)cc23)c1 [CUDC-101] | 94.9 ± 1.2% | 99.73 ± 0.74% | 97.8 ± 1.4% | 93.79 ± 0.69% | 83.8 ± 2.3% | 2.28 ± 0.2% | 110.7 ± 0.61% | 108 ± 6.5% | 104 ± 1.9% | 95.14 ± 0.26% | 85.2 ± 2% | 30.6 ± 1.5% | – | – | – | – | – | – | – | – | – | 0.714 | 0.529 | 0.505 | 0.386 | 0.343 | 0.123 | 0.127 | 0.005 | 0.0015 |
